Test results reported in PubChem BioAssay (NCI).
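Method: 48-hour compound exposure of cells in 96-well plates, five concentrations, linear interpolation of endpoints. GI50 is the concentration that inhibits growth by half. TGI is the concentration that stops growth completely.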

How the values were obtained:
Assay in all cases: DTP human tumour cell line panel, 48 h
HCT-15 colon = test system: HCT-15 colon
MOLT-4 leukemia = test system: MOLT-4 leukemia
NCI-H460 lung = test system: NCI-H460 lung
OVCAR-5 ovarian = test system: OVCAR-5 ovarian
RPMI-8226 leukemia = test system: RPMI-8226 leukemia
SK-MEL-2 melanoma = test system: SK-MEL-2 melanoma
SK-OV-3 ovarian = test system: SK-OV-3 ovarian
SN12C renal = test system: SN12C renal
SNB-19 CNS = test system: SNB-19 CNS
SNB-75 CNS = test system: SNB-75 CNS

Row | Structure (SMILES) | GI50 (HCT-15 colon) | TGI (HCT-15 colon) | GI50 (MOLT-4 leukemia) | TGI (MOLT-4 leukemia) | GI50 (NCI-H460 lung) | TGI (NCI-H460 lung) | GI50 (OVCAR-5 ovarian) | TGI (OVCAR-5 ovarian) | GI50 (RPMI-8226 leukemia) | TGI (RPMI-8226 leukemia) | GI50 (SK-MEL-2 melanoma) | TGI (SK-MEL-2 melanoma) | GI50 (SK-OV-3 ovarian) | TGI (SK-OV-3 ovarian) | GI50 (SN12C renal) | TGI (SN12C renal) | GI50 (SNB-19 CNS) | TGI (SNB-19 CNS) | GI50 (SNB-75 CNS) | TGI (SNB-75 CNS)
1 | C=C1C(=O)O[C@H]2[C@H]1CC/C(COC(=O)c1ccc(Br)cc1)=C\CC[C@@]1(C)O[C@@H]21 | 1.1 µM | 3.06 µM | 1.17 µM | 6.06 µM | 1.99 µM | 4.3 µM | 1.68 µM | 3.62 µM | 0.543 µM | 3.85 µM | 1.64 µM | 3.06 µM | 14.8 µM | 28.1 µM | 1.63 µM | 3.69 µM | 1.85 µM | 4.08 µM | 1.16 µM | 2.41 µM
2 | CCCCOc1nc2ccccc2cc1C1CNC(=O)c2ccccc2N1 (centres undefined) | 2.3 µM | 11.3 µM | 2.95 µM | 13.5 µM | 3.16 µM | 11.5 µM | 5.4 µM | 31.4 µM | 2.81 µM | 16 µM | 4.06 µM | 29.6 µM | 2.94 µM | 13.3 µM | 3.77 µM | 18.9 µM | 5.55 µM | 44.8 µM | 1.75 µM | 12.2 µM
3 | Nc1ccc(C(=O)N/C(=C\c2ccc3c(c2)OCO3)c2nc3ccc4c(c3[nH]2)C(=O)c2ccccc2C4=O)cc1 |  | > 100 µM |  | > 100 µM |  | > 100 µM |  | > 100 µM |  | > 100 µM |  | 75.4 µM |  | 79.7 µM |  | > 100 µM |  | > 100 µM |  | 57.8 µM
4 | CC(=O)OC1CC2C(C)(C)C(=O)C=C[C@]2(C)C2CCC3(C)C(=CCC3[C@H](CO)C[C@H](O)C(=O)C(C)(C)O)[C@]12C (some centres undefined) |  | 40.4 µM |  | 89.5 µM |  | 40.1 µM |  | 83.3 µM |  | 64.2 µM |  | 51.3 µM |  | 48.2 µM |  | 75.9 µM |  | > 100 µM |  | 91.6 µM
5 | c1cc[c]([Sn]([O]c2cccc3cccnc23)([c]2ccccc2)[c]2ccccc2)cc1 | 0.0139 µM | 0.0285 µM | 0.0102 µM | 0.0402 µM | 0.0154 µM | 0.0321 µM | 0.0119 µM | 0.0424 µM | 0.0184 µM | 0.05 µM | 0.0217 µM | 0.059 µM | 0.0192 µM | 0.038 µM | 0.0151 µM | 0.0293 µM | 0.04 µM | 0.127 µM | 0.0509 µM | 0.198 µM
6 | CCn1c(-c2nonc2N)nc2c(C#CC(C)(C)O)ncc(OCC3CCNCC3)c21 | 16.5 µM | > 25 µM | 8.3 µM | > 25 µM | 18.2 µM | > 25 µM | > 25 µM | > 25 µM | > 25 µM | > 25 µM | 11.7 µM | > 25 µM | 10.4 µM | > 25 µM | 9.17 µM | > 25 µM | 10.6 µM | > 25 µM | 2.74 µM | > 23.3 µM
7 | O=C(Nc1ccc(Oc2cccc(Cl)c2)c(Cl)c1)c1cccnc1 | 0.343 µM | > 50 µM | 2.86 µM | > 50 µM | 1.88 µM | 19.1 µM | 5.5 µM | > 50 µM | 2 µM | > 50 µM | 2.11 µM | 20 µM | 2.12 µM | > 50 µM | 3.74 µM | > 50 µM | 3.15 µM | > 50 µM | 1.21 µM | 4.81 µM
8 | O=C(N/N=C\c1cc(Br)cc(Br)c1O)N/N=C/c1cc(Br)cc(Br)c1O | 2.77 µM | 16.1 µM | 2.14 µM | 11.4 µM | 3.11 µM | 11.5 µM | 10.6 µM | 27.6 µM | 2.72 µM | 10.6 µM | 11.2 µM | 24 µM | 5.21 µM | 16.6 µM | 4.56 µM | 17.8 µM | 3.65 µM | 17.7 µM | 1.11 µM | 15.6 µM
9 | COC(=O)CCCCCCCCC(=O)c1c(C)[nH]c(/C=C2\N=C(c3ccc[nH]3)C=C2OC)c1C | 22.1 µM | > 57.7 µM | 0.755 µM | > 43.6 µM | 3.57 µM | > 100 µM | > 28.7 µM | > 100 µM | 6.38 µM | > 30.6 µM | 8.85 µM | > 29.1 µM | > 100 µM | > 100 µM | > 53.8 µM | > 100 µM | 59.1 µM | > 100 µM | > 31 µM | > 83.7 µM
10 | COc1ccc2c(c1)/C(=N/OC(C)=O)c1c-2c(Nc2ccc(/C(C)=N/OC(C)=O)cc2)nc2ccccc12 | 57.5 µM | > 100 µM | 26.1 µM | 72.8 µM | 35.7 µM | > 100 µM | > 100 µM | > 100 µM | 29.2 µM | 79.7 µM | 83.1 µM | > 100 µM | 71.6 µM | > 100 µM | 69.7 µM | > 100 µM | > 100 µM | > 100 µM | 25 µM | 75.9 µM
11 | O=[N+]([O-])C1(CO)COC2(OC1)c1ccccc1-c1ccccc12 |  | > 100 µM |  | > 85.2 µM |  | > 100 µM |  | > 100 µM |  | 70.1 µM |  | > 100 µM |  | > 100 µM |  | > 100 µM |  | > 100 µM |  | > 100 µM
12 | CC1CC(=O)CC[C@@H]1OCc1ccccc1 (some centres undefined) |  | > 100 µM |  | > 100 µM |  | > 100 µM |  | > 100 µM |  | > 100 µM |  | > 100 µM |  | > 100 µM |  | > 100 µM |  | > 100 µM |  | > 100 µM
13 | CN(C)CC1CCCCCCCCCCC1=O (centres undefined) | > 100 µM | > 100 µM | > 100 µM | > 100 µM | > 100 µM | > 100 µM | > 100 µM | > 100 µM |  | > 100 µM | > 100 µM | > 100 µM |  | > 100 µM | > 100 µM | > 100 µM | > 100 µM | > 100 µM |  | > 100 µM
14 | Fc1ccc(-c2ncn(C3CCNCC3)c2-c2ccnc(Oc3ccc(Oc4ccccc4)cc3)n2)cc1 | 3.55 µM | 7.29 µM | 3.31 µM | 7.59 µM | 3.66 µM | 7.28 µM | 4.1 µM | 7.67 µM | 4.99 µM | 9.91 µM | 5.03 µM | 9.06 µM | 4.41 µM | 7.9 µM | 3.57 µM | 6.96 µM | 4.25 µM | 7.92 µM | 3.4 µM | 6.67 µM
15 | COc1ccc(CN[C@H]2CCc3cc(OC)c(OC)c(OC)c3-c3ccc(SC)c(=O)cc32)c(OC)c1OC |  | 0.0938 µM |  | > 100 µM |  | 0.0767 µM | > 100 µM | > 100 µM | 0.0254 µM | 31.5 µM | 0.0118 µM |  |  | > 100 µM |  | 59.8 µM |  | > 100 µM | 5.77 µM | 
16 | NC(=O)COc1ccc(Br)cc1Br |  | > 100 µM |  | > 100 µM |  | > 100 µM |  | > 100 µM |  | > 100 µM |  | > 100 µM |  | > 100 µM |  | > 100 µM |  | > 100 µM |  | > 100 µM
17 | Nc1cc2ccncc2c2ccccc12 | 11.8 µM | > 100 µM | 5.35 µM | > 100 µM | 8.78 µM | 70.6 µM | 18.7 µM | 88.1 µM | 11.6 µM | 63.5 µM | 13.6 µM | 30 µM | 13.6 µM | 87.4 µM | 11.4 µM | > 100 µM | 19.5 µM | > 100 µM | 16.1 µM | 35.2 µM
18 | Cn1ccnc1C(=O)/C=C/c1ccc(CC(=O)Nc2cc(F)c(F)c(F)c2)cc1 | 1.03 µM | 6.58 µM | 0.84 µM | 12.1 µM | 1.49 µM | 11.8 µM | 3.63 µM | 9.39 µM | 0.795 µM | 3.54 µM | 4.22 µM | 10.6 µM | 5.59 µM | > 25 µM | 1.4 µM | 8.61 µM | 2.87 µM | 6.59 µM | 0.867 µM | > 25 µM
19 | BrCC[N+]12CCCN1CCC2 |  | 28.2 µM |  | 12.9 µM |  | 48.9 µM |  | 40 µM |  | 8.38 µM |  | 48.4 µM |  | > 93.3 µM |  | 29.3 µM |  | > 77 µM |  | 32 µM
20 | CO[C@H]1/C=C/C=C/C=C/C[C@H](OC(=O)[C@@H](C)NC(=O)C2CCCCC2)[C@H](C)[C@@H](O)/C(C)=C\CCC2=CC(=O)C=C(NC(=O)C1)C2=O | 0.336 µM | 5.57 µM | 0.142 µM | 7.04 µM | 0.111 µM | 1.14 µM | 0.324 µM | 2.89 µM | 0.111 µM | 0.327 µM | 0.131 µM | 0.715 µM | 0.187 µM | 1.83 µM | 0.106 µM | 0.556 µM | 0.106 µM | 0.563 µM | 0.0832 µM | 1.7 µM
21 | NS(=O)(=O)c1ccc(N=Nc2cc3ccccc3c(C(=O)O)c2O)cc1 |  | > 100 µM |  | > 100 µM |  | > 87.5 µM |  | > 94.5 µM |  | > 100 µM |  | > 67.1 µM |  | > 100 µM |  | > 100 µM |  | > 100 µM |  | > 94.4 µM
22 | COc1ccc2nc(NC(=O)C(=O)C(C#N)c3ccc(CC#N)cc3)sc2c1 (centres undefined) |  | > 100 µM |  | > 100 µM |  | > 100 µM |  | > 100 µM |  | > 100 µM |  | > 100 µM |  | > 100 µM |  | > 100 µM |  | > 100 µM |  | > 100 µM
